“And” between values parts separate entries of the source, which are not always exact repeats. Equal values may be shown once.

The target in assay [1] is PIK3CG (human) (UniProt P48736). Kind of assay: Cell-Based Assay. Particulars: u937.
The target in assay [2] is PIK3CD (Human) (UniProt O00329). Briefly: Enzyme Assay.
In assay [3] the target is PIK3CB (Human) (UniProt P42338). Kind of assay: Enzyme Assay.
The target of assay [4] is PIK3CA (human) (UniProt P42336). Briefly: Enzyme Assay.
Assay [5] concerns the target PIK3CG (human) (UniProt P48736). Kind of assay: Enzyme Assay.
The target is the same in assay [6]. Briefly: Cell-Based Assay. The conditions noted are these: u937. The source holds these as a separate data set.

PIK3CD (Human), sequence (O00329 whole entry, looked up): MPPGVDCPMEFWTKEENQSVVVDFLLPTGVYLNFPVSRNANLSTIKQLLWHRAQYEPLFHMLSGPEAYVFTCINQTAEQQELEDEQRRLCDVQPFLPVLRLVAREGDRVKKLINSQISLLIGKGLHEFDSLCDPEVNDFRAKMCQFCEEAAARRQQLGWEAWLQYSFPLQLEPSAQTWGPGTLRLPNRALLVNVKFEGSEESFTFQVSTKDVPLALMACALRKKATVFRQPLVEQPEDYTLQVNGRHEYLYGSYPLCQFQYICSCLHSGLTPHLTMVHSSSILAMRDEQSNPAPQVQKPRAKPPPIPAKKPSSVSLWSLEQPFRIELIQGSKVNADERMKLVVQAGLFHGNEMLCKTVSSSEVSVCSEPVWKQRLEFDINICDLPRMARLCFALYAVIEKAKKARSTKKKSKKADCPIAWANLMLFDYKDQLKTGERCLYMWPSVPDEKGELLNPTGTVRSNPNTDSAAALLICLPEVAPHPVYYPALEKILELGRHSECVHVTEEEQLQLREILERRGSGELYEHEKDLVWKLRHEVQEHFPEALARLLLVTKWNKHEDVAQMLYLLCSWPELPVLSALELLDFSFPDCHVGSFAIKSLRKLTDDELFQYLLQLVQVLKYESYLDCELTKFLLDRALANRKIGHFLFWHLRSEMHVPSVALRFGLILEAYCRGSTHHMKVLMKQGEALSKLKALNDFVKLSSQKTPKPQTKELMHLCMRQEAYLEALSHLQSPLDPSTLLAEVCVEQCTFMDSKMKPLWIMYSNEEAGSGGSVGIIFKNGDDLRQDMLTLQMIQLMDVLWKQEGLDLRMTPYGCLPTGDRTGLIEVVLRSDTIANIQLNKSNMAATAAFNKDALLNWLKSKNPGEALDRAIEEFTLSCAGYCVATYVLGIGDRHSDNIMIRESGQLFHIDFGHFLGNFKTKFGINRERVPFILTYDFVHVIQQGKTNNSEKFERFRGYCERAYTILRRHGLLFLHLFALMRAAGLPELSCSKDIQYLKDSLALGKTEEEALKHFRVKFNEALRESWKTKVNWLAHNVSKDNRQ
PIK3CA (human), sequence (P42336 whole entry, looked up): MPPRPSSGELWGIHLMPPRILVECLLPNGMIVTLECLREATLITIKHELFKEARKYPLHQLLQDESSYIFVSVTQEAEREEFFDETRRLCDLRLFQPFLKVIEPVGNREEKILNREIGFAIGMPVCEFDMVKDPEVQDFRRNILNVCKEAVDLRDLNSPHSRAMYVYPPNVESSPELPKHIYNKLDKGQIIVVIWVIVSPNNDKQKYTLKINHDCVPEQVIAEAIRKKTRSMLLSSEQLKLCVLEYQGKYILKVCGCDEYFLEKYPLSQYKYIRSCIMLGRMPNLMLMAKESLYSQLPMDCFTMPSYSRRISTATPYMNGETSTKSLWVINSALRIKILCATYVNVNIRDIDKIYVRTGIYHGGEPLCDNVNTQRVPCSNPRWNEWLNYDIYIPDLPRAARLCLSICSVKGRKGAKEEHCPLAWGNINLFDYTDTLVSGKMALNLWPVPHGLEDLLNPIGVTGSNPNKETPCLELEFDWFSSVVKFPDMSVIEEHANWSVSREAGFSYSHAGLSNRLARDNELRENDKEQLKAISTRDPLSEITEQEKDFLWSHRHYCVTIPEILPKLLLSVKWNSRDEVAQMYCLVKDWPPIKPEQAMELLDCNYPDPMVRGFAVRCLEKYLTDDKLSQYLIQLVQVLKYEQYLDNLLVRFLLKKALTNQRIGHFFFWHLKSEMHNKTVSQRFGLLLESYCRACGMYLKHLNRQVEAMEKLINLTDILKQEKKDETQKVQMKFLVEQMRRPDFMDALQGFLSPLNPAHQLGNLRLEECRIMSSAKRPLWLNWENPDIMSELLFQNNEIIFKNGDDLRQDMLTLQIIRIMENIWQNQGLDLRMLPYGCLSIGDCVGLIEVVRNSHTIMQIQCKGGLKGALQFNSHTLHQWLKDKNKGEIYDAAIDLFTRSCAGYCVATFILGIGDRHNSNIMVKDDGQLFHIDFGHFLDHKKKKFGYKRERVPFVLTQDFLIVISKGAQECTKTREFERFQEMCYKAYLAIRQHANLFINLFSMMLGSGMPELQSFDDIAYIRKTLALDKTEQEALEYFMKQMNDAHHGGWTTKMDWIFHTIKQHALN
PIK3CG (human), sequence (P48736 whole entry, looked up): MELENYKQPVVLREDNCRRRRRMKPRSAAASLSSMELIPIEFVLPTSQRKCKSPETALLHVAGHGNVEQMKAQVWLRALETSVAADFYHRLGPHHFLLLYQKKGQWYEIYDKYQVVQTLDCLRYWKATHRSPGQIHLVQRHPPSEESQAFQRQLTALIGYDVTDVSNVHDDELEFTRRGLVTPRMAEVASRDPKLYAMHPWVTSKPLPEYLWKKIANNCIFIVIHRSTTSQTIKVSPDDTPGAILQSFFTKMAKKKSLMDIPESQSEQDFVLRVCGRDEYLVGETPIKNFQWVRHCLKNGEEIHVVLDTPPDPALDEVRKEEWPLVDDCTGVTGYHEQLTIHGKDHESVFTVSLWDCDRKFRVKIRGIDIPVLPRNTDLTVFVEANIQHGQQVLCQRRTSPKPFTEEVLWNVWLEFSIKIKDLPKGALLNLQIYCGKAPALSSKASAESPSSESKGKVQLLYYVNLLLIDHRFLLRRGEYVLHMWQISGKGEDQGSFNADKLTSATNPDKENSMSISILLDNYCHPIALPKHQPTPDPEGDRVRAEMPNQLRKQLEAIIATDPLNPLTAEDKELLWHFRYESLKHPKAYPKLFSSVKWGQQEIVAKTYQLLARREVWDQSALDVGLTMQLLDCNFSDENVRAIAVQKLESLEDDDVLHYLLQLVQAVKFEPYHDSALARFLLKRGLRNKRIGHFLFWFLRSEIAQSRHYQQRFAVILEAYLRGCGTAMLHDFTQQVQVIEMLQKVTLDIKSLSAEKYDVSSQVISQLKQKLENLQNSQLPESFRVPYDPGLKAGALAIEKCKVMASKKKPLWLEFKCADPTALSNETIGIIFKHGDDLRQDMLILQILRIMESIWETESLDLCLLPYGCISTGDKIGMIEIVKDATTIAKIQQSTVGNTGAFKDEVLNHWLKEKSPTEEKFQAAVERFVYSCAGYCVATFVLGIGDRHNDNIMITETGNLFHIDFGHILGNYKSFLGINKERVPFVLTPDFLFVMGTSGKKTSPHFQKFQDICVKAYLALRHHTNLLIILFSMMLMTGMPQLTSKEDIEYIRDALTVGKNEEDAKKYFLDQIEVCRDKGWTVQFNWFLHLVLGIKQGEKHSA
PIK3CB (Human), sequence (P42338 whole entry, looked up): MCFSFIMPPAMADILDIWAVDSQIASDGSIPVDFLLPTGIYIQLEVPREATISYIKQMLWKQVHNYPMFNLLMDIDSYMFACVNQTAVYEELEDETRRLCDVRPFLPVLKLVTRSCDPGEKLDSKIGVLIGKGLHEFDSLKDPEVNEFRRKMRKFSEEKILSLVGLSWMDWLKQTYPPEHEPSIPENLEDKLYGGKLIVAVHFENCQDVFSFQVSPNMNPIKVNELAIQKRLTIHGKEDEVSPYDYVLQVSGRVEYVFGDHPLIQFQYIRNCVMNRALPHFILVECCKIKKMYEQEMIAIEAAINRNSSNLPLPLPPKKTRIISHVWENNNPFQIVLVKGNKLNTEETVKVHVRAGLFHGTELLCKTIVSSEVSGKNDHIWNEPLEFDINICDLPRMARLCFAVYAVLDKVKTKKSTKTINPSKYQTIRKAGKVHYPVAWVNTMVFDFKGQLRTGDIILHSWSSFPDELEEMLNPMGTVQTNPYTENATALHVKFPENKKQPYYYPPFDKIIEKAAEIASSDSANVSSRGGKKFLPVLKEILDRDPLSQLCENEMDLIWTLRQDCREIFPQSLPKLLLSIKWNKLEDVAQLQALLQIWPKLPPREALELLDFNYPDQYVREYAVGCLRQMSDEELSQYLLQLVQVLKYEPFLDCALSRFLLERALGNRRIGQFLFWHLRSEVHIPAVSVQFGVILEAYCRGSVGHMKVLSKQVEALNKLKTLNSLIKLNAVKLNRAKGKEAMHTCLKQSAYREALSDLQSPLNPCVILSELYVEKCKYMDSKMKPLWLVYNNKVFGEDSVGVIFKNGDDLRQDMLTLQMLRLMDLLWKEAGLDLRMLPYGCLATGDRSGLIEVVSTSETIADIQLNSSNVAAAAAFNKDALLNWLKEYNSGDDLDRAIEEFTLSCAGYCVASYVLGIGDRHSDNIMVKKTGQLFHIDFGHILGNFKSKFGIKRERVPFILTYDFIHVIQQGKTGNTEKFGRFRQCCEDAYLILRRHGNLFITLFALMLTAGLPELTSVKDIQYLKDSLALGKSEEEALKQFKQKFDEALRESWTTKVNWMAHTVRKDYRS

Usually IC50 stands for the point on the concentration scale where inhibition reaches its midpoint. Take `Cc1ccc(S(=O)(=O)N[C@H]2CC3(C[C@@H](O)C3)C2)cc1-c1cnc(N)c(-c2cn(C)nc2C)n1` (some centres not stated): in assay [1], the IC50 was determined as 40 nM.

In assay [1], `Cc1ncc(-c2nc(-c3cc(S(=O)(=O)NCC4COCCN4C)ccc3C)cnc2N)s1` (configuration not stated) returned an IC50 of 145 nM.

In the case of `CN[C@H]1CCC[C@@H]1NS(=O)(=O)c1ccc(C)c(-c2cnc(N)c(-c3ccnc(C)c3)n2)c1`, the IC50 in assay [2] amounted to 4500 nM; in assay [3] it was 2700 nM; in assay [4], 1600 nM; in assay [5], 820 nM.

Turning to `Cc1cc(-c2nc(-c3cc(S(=O)(=O)NCC4CCN(C)C4)ccc3C)cnc2N)ccn1` (configuration not stated), the IC50 in assay [1] was above 10000 nM.

As to `Cc1ccc(S(=O)(=O)NCC(C)(C)CO)cc1-c1cnc(N)c(-c2nc(C3CC3)no2)n1`, the IC50 is 330 nM in assay [2], above 9100 nM in assay [3], 1100 nM in assay [4] and 81 nM in assay [5].

As to `Cc1cc(-c2nc(-c3cc(S(=O)(=O)N[C@H]4CC[C@H](N)CC4)ccc3C)cnc2N)ccn1`, the IC50 was found to be 1700 nM in assay [2]; 5220 nM in assay [3]; 180 nM in assay [4]; 51 nM in assay [5]; 63 nM in assay [1].

With `CN[C@@H]1CCC[C@H]1NS(=O)(=O)c1ccc(C)c(-c2cnc(N)c(-c3ccnc(C)c3)n2)c1`, the IC50 stood at 910 nM in assay [2], 7500 nM in assay [3], 730 nM in assay [4] and 110 nM in assay [5].

As to `Cc1ccc(S(=O)(=O)NC[C@H]2CCC(C)(C)O2)cc1-c1cnc(N)c(-n2cncn2)n1`, the IC50 in assay [1] was 411 nM.

`Cc1ccc(S(=O)(=O)NC[C@@H]2COCCN2C)cc1-c1cnc(N)c(-c2cn(C)nc2C)n1.Cc1ccc(S(=O)(=O)NC[C@H]2COCCN2C)cc1-c1cnc(N)c(-c2cn(C)nc2C)n1` had an IC50 in assay [6] of 241 nM.

For the molecule `Cc1ccc(S(=O)(=O)NCC(C)(C)O)cc1-c1cnc(N)c(-c2nc(C(C)C)no2)n1`, the IC50 in assay [2] is 1700 nM; in assay [3], above 10000 nM; in assay [4] it was 1200 nM; in assay [5], 61 nM.

`Cc1ncc(-c2nc(-c3cc(S(=O)(=O)NCC(F)(F)F)ccc3C)cnc2N)s1`: the IC50 in assay [2] came out at 40 nM; in assay [3] it was 990 nM; in assay [4] it was 40 nM; in assay [5], 5 nM.

Turning to `Cc1ccc(S(=O)(=O)N[C@H]2CC[C@@](C)(O)CC2)cc1-c1cnc(N)c(-n2cncn2)n1`, the IC50 in assay [1] was 103 nM and 135 nM.

Consider `Cc1ccc(S(=O)(=O)NCCC(C)(C)O)cc1-c1cnc(N)c(-c2nc(C3CC3)no2)n1`, for which the IC50 was 292 nM in assay [2]; above 9100 nM in assay [3]; 200 nM in assay [4]; 12 nM in assay [5]; 129 nM in assay [1].

Regarding `Cc1ccc(S(=O)(=O)NCC2(O)CCOCC2)cc1-c1cnc(N)c(-n2cncn2)n1`, the IC50 in assay [2] worked out at 1500 nM; in assay [3] it was 1460 nM; in assay [4], 660 nM; in assay [5], 94 nM; in assay [1], 387 nM.

`Cc1ccc(S(=O)(=O)NCC[C@@H](O)C(F)(F)F)cc1-c1cnc(N)c(-c2cn(C)nc2C)n1.Cc1ccc(S(=O)(=O)NCC[C@H](O)C(F)(F)F)cc1-c1cnc(N)c(-c2cn(C)nc2C)n1`: the IC50 was 60 nM in assay [1] and 337 nM in assay [6].

For `Cc1ccc(S(=O)(=O)NC[C@H]2CNC[C@@H]2O)cc1-c1cnc(N)c(-n2cncn2)n1`, the IC50 in assay [2] was 2400 nM; in assay [3], 730 nM; in assay [4], 960 nM; in assay [5] it was 140 nM.

The values above are taken from the Kinase Knowledgebase extract (Sharma et al. 2016).
